IC50 data for 44 compounds are collected here from patent US6867284B1, “Peptide inhibitors of hepatitis C virus NS3 protease” (Istituto di Ricerche di Biologia Molecolare P. Angeletti …, priority 1998, dated 2005).

Molecules are shown by their SMILES. Numbered stars: 1 amine (or outer) side, 2 acyl side, 3 side chain; on linkers, the order of the positions; unused ones are H or OH. Square brackets hold non-standard residues; d marks the D form. Peptide text beside a SMILES is read from it. * marks the point of attachment. ξ: configuration not given here. Dip = N[C@H](C(=O)O)C(c1ccccc1)c1ccccc1; X6 = O=C(NS(=O)(=O)c1ccccc1)C(CC(F)F)N*; X8 = O=C(c1nc2ccccc2o1)C(CC(F)F)N*; X1 = O=C(c1ncc[nH]1)C(CC(F)F)N*; Cha = N[C@@H](CC1CCCCC1)C(=O)O; Ile(3ξ) = CCC(C)[C@H](N)C(=O)O; X3 = O=C(C(CC(F)F)N[*:1])[*:2]; Suc = O=C(CCC(=O)[*:2])[*:1]; X2 = O=C(c1ccco1)C(CC(F)F)N*; X7 = O=C(c1nccs1)C(CC(F)F)N*

In the first assay the target is T1, HCV NS3 protease (Hepatitis C virus genotype 1b, UniProt P26663).
T1 construct: an NS3/4A complex comprising the NS3 protease domain
T1 sequence (P26663 1027-1208, other chains not shown): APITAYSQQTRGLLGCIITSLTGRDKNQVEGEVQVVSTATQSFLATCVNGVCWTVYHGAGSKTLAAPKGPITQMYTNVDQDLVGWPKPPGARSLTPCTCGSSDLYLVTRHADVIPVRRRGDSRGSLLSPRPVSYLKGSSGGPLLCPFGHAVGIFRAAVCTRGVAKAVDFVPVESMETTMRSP
The assay is described as follows: Inhibition of NS3 protease (HPLC cleavage assay, NS3/4A complex with Pep4AK, substrate peptide 4AB). The format is biochemical. As to conditions: Table 1 hexapeptides, cells printed in nM; read-out: IC50.
Take `CC(=O)N[C@@H](CC(=O)O)C(=O)N[C@@H](CCC(=O)O)C(=O)N[C@H](C(=O)N[C@@H](CCC(=O)O)C(=O)N[C@@H](CC1CCCCC1)C(=O)NC(CC(F)F)C(=O)c1nc2ccccc2o1)C(c1ccccc1)c1ccccc1` (some centres unmarked) [Compound 1j] (Ac-DE[Dip]E[Cha]-X8): the IC50 was 600 nM. Consider `CSCC[C@H](NC(=O)[C@H](CCC(=O)O)NC(=O)[C@H](CC(=O)O)NC(C)=O)C(=O)N[C@@H](CCC(=O)O)C(=O)N[C@@H](CCC(=O)O)C(=O)NC(C=O)CC(F)F` (some centres unmarked) [Compound 1n] (Ac-DEMEE[X3]-aldehyde), for which the IC50 came out at 148 nM. Still for that read-out and setting: next, `CCC(C)[C@H](NC(=O)[C@@H](NC(=O)[C@H](CCC(=O)O)NC(=O)CCC(=O)O)C(c1ccccc1)c1ccccc1)C(=O)N[C@@H](CC1CCCCC1)C(=O)NC(CC(F)F)C(=O)NS(=O)(=O)c1ccccc1` (some centres unmarked) [Compound 1o] (Suc-E[Dip][Ile(3ξ)][Cha]-X6): 800 nM.

Staying with this assay, now noted: Table 1 hexapeptides, cells printed in μM; read-out: IC50.
Consider `CC(=O)N[C@@H](CC(=O)O)C(=O)N[C@@H](CCC(=O)O)C(=O)N[C@H](C(=O)N[C@@H](CCC(=O)O)C(=O)N[C@@H](CC1CCCCC1)C(=O)NC(CC(F)F)C(=O)c1nccs1)C(c1ccccc1)c1ccccc1` (some centres unmarked) [Compound 1k] (Ac-DE[Dip]E[Cha]-X7), for which the half-maximal inhibitory concentration (IC50) was 1000 nM. As for `CC(=O)N[C@@H](CC(=O)O)C(=O)N[C@@H](CCC(=O)O)C(=O)N[C@H](C(=O)N[C@@H](CCC(=O)O)C(=O)N[C@@H](CC1CCCCC1)C(=O)NC(CC(F)F)C(=O)c1ncc[nH]1)C(c1ccccc1)c1ccccc1` (some centres unmarked) [Compound 1l] (Ac-DE[Dip]E[Cha]-X1), the IC50 worked out at 6000 nM. Still for that read-out and setting: next, `CC(=O)N[C@@H](CC(=O)O)C(=O)N[C@@H](CCC(=O)O)C(=O)N[C@H](C(=O)N[C@@H](CCC(=O)O)C(=O)N[C@@H](CC1CCCCC1)C(=O)NC(CC(F)F)C(=O)c1ccco1)C(c1ccccc1)c1ccccc1` (some centres unmarked) [Compound 1m] (Ac-DE[Dip]E[Cha]-X2): 7000 nM.

The same assay, now with this note: Table 2 tetrapeptides and tripeptides; read-out: IC50.
As to `CC(=O)N[C@H](C(=O)N[C@@H](CCC(=O)O)C(=O)N[C@@H](CC1CCCCC1)C(=O)NC(CC(F)F)C(=O)C(=O)O)C(c1ccccc1)c1ccccc1` (some centres unmarked) [Compound 2a], the IC50 amounted to 10000 nM. As for `CC(=O)N[C@H](C(=O)N[C@@H](CCC(=O)O)C(=O)N[C@@H](CC1CCCCC1)C(=O)NC(CC(F)F)C(=O)C(=O)NCc1ccccc1)C(c1ccccc1)c1ccccc1` (some centres unmarked) [Compound 2b], the IC50 was 11400 nM. On the same count and under the same terms, then `CC(=O)N[C@H]1Cc2cccc(c2)Oc2ccc(cc2)C[C@@H](C(=O)NC(CC(F)F)C(=O)C(=O)O)NC(=O)[C@H](CCC(=O)O)NC1=O` (some centres unmarked) [Compound 2c], with 47000 nM; and `CCC(C)[C@H](NC(=O)OCc1ccccc1)C(=O)N[C@H](C(=O)NC(CC(F)F)C(=O)C(=O)O)C(C)C` (some centres unmarked) [Compound 3a], with 16000 nM. Same read-out and setting: then `CCC(C)[C@H](NC(=O)OCc1ccccc1)C(=O)N[C@@H](CC1CCCCC1)C(=O)NC(CC(F)F)C(=O)C(=O)O` (some centres unmarked) [Compound 3b], with 1400 nM. On to `CCC(C)[C@H](NC(=O)OCc1ccccc1)C(=O)N[C@@H](CC(C)C)C(=O)NC(CC(F)F)C(=O)C(=O)O` (some centres unmarked) [Compound 3c], for which the IC50 stood at 1400 nM.

As for `CCC(C)[C@H](NC(=O)OCc1ccccc1)C(=O)N[C@@H](CCC(=O)O)C(=O)NC(CC(F)F)C(=O)C(=O)O` (some centres unmarked) [Compound 3d], the IC50 worked out at 9300 nM. With `CCC(C)[C@H](NC(=O)OCc1ccccc1)C(=O)N[C@@H](CC)C(=O)NC(CC(F)F)C(=O)C(=O)O` (some centres unmarked) [Compound 3e], the IC50 was 3000 nM.

As for `CCC(C)[C@H](NC(=O)OCc1ccccc1)C(=O)N[C@@H](Cc1ccccc1)C(=O)NC(CC(F)F)C(=O)C(=O)O` (some centres unmarked) [Compound 3f], the IC50 came out at 3000 nM. The same measure, in the same setting: then `CCC(C)[C@H](NC(=O)OCc1ccccc1)C(=O)N[C@@H](C)C(=O)NC(CC(F)F)C(=O)C(=O)O` (some centres unmarked) [Compound 3g], with 16000 nM; and `CCC(C)[C@H](NC(=O)NCc1ccccc1)C(=O)N[C@@H](CC(C)C)C(=O)NC(CC(F)F)C(=O)C(=O)O` (some centres unmarked) [Compound 4a], with 6500 nM; and `CCC(C)[C@H](NC(=O)NCc1cc(C(F)(F)F)cc(C(F)(F)F)c1)C(=O)N[C@@H](CC(C)C)C(=O)NC(CC(F)F)C(=O)C(=O)O` (some centres unmarked) [Compound 4b], with 39000 nM. On the same count and under the same terms, then `CCC(C)[C@H](NC(=O)OCc1ccc(C(=O)OC)cc1)C(=O)N[C@@H](CC(C)C)C(=O)NC(CC(F)F)C(=O)C(=O)O` (some centres unmarked) [Compound 4c], with 1700 nM. With `CCC(C)[C@H](NC(=O)OCc1ccc(C(=O)O)cc1)C(=O)N[C@@H](CC(C)C)C(=O)NC(CC(F)F)C(=O)C(=O)O` (some centres unmarked) [Compound 4d], the IC50 amounted to 440 nM. The same measure, in the same setting: next, `CCC(C)[C@H](NC(=O)OCC1c2ccccc2-c2ccccc21)C(=O)N[C@@H](CC(C)C)C(=O)NC(CC(F)F)C(=O)C(=O)O` (some centres unmarked) [Compound 4e]: 7800 nM; `CCC(C)[C@H](NC(=O)OC(C)(C)C)C(=O)N[C@@H](CC(C)C)C(=O)NC(CC(F)F)C(=O)C(=O)O` (some centres unmarked) [Compound 4f]: 1000 nM; `CC[C@@H](C)[C@H](NC(=O)OC(C)(C)C)C(=O)N[C@@H](CC(C)C)C(=O)NC(CC(F)F)C(=O)C(=O)O` (some centres unmarked) [Compound 5a]: 700 nM. Turning to `CC(C)C[C@H](NC(=O)OC(C)(C)C)C(=O)N[C@@H](CC(C)C)C(=O)NC(CC(F)F)C(=O)C(=O)O` (some centres unmarked) [Compound 5b], the IC50 stood at 1200 nM. Still for that read-out and setting: next, `CC(C)C[C@H](NC(=O)[C@H](Cc1ccccc1)NC(=O)OC(C)(C)C)C(=O)NC(CC(F)F)C(=O)C(=O)O` (some centres unmarked) [Compound 5c]: 1500 nM.

As to `CC(C)C[C@H](NC(=O)[C@@H](NC(=O)OC(C)(C)C)C(C)C)C(=O)NC(CC(F)F)C(=O)C(=O)O` (some centres unmarked) [Compound 5d], the concentration for half-maximal inhibition (IC50) came out at 500 nM. On the same count and under the same terms, next, `CC(C)C[C@H](NC(=O)[C@H](C)NC(=O)OC(C)(C)C)C(=O)NC(CC(F)F)C(=O)C(=O)O` (some centres unmarked) [Compound 5f]: 8900 nM; `CCCC[C@H](NC(=O)OC(C)(C)C)C(=O)N[C@@H](CC(C)C)C(=O)NC(CC(F)F)C(=O)C(=O)O` (some centres unmarked) [Compound 5g]: 1200 nM.

`CCC[C@H](NC(=O)OC(C)(C)C)C(=O)N[C@@H](CC(C)C)C(=O)NC(CC(F)F)C(=O)C(=O)O` (some centres unmarked) [Compound 5h]: the IC50 worked out at 1500 nM.

With `CC(C)C[C@H](NC(=O)[C@H](CCC(=O)OCc1ccccc1)NC(=O)OC(C)(C)C)C(=O)NC(CC(F)F)C(=O)C(=O)O` (some centres unmarked) [Compound 5i], the IC50 is 5800 nM.

In the case of `CC(C)C[C@H](NC(=O)[C@H](CCC(=O)O)NC(=O)OC(C)(C)C)C(=O)NC(CC(F)F)C(=O)C(=O)O` (some centres unmarked) [Compound 5j], the IC50 amounted to 330 nM. Same read-out and setting: then `CC(C)C[C@H](NC(=O)[C@H](CCC(N)=O)NC(=O)OC(C)(C)C)C(=O)NC(CC(F)F)C(=O)C(=O)O` (some centres unmarked) [Compound 5k], with 2100 nM; and `CC(C)C[C@H](NC(=O)[C@H](CC(=O)OCc1ccccc1)NC(=O)OC(C)(C)C)C(=O)NC(CC(F)F)C(=O)C(=O)O` (some centres unmarked) [Compound 5l], with 3500 nM. Turning to `CC(C)C[C@H](NC(=O)[C@H](CC(=O)O)NC(=O)OC(C)(C)C)C(=O)NC(CC(F)F)C(=O)C(=O)O` (some centres unmarked) [Compound 5m], the concentration for half-maximal inhibition (IC50) is 1600 nM.

For the compound `CC(C)C[C@H](NC(=O)[C@@H](NC(=O)OC(C)(C)C)C(C)(C)C)C(=O)NC(CC(F)F)C(=O)C(=O)O` (some centres unmarked) [Compound 5n], the IC50 amounted to 720 nM. Still for that read-out and setting: then `CC(C)(C)OC(=O)N[C@@H](CCC(=O)O)C(=O)N[C@@H](CC(F)F)C(=O)NC(CC(F)F)C(=O)C(=O)O` (some centres unmarked) [Compound 5o], with 300 nM; and `CC(C)C[C@H](NC(=O)[C@H](C/C=C/c1ccccc1)NC(=O)OC(C)(C)C)C(=O)NC(CC(F)F)C(=O)C(=O)O` (some centres unmarked) [Compound 5p], with 2400 nM; and `CC(C)CC[C@H](NC(=O)OC(C)(C)C)C(=O)N[C@@H](CC(C)C)C(=O)NC(CC(F)F)C(=O)C(=O)O` (some centres unmarked) [Compound 5q], with 1600 nM.

Regarding `CC(C)C[C@H](NC(=O)[C@H](Cc1ccc(Cl)c(Cl)c1)NC(=O)OC(C)(C)C)C(=O)NC(CC(F)F)C(=O)C(=O)O` (some centres unmarked) [Compound 5r], the IC50 is 5800 nM.

Consider `CC(C)C[C@H](NC(=O)[C@H](Cc1cccs1)NC(=O)OC(C)(C)C)C(=O)NC(CC(F)F)C(=O)C(=O)O` (some centres unmarked) [Compound 5s], for which the IC50 is 3800 nM. Still for that read-out and setting: next, `CC(C)C[C@H](NC(=O)[C@H](Cc1cccc(Br)c1)NC(=O)OC(C)(C)C)C(=O)NC(CC(F)F)C(=O)C(=O)O` (some centres unmarked) [Compound 5t]: 2500 nM; `CC(C)C[C@H](NC(=O)[C@@H](NC(=O)OC(C)(C)C)C1CCCC1)C(=O)NC(CC(F)F)C(=O)C(=O)O` (some centres unmarked) [Compound 5u]: 400 nM. Turning to `CC(C)COC(=O)N[C@@H](CCC(=O)O)C(=O)N[C@@H](CC(C)C)C(=O)NC(C=O)CC(F)F` (some centres unmarked) [Compound 6a], the IC50 was 26000 nM. Take `CC(C)C[C@H](NC(=O)[C@@H](NC(=O)OCc1ccccc1)C(C)C)C(=O)NC(C=O)CC(F)F` (some centres unmarked) [Compound 6b]: the IC50 came out at 50000 nM.
